≈ marks a conversion by molar mass, not a printed value.
How the values were obtained:
[1] = system: Entamoeba histolytica 200: NIH or E-32; test: Anti-amoebic action in vitro (axenic culture, minimum inhibitory concentration); format: cell-based; settings: axenic culture in TYI-S-33 medium, 48 h incubation with compound at 37°C, amoebae counted by microscope, read-out: minimum concentration active in killing the amoeba
Experimental: Axenic Entamoeba histolytica cultures were grown in glass, screw-capped tubes (16x100 mm) containing about 10 ml complete growth medium TYI-S-33. The tubes were inoculated with 0.5 ml of a 72 h old axenic culture of Entamoeba histolytica 200: NIH or E-32, obtained from an external supplier (Kothari Research Centre, Calcutta, India). After incubation for 24 h at 37°C compounds to be tested were added at desired concentrations. Incubation of the tubes was continued for an additional 48 h. The number of amoebae in the medium were counted by microscopic examination at 100x magnification. The complete growth medium TYI-S-33 medium was prepared by mixing aseptically 9 ml of a nutrient solution, 1 ml of animal serum, 0.3 ml of a vitamin mixture and 0.05 ml of a solution containing the antibiotics streptomycine and benzylpenicillin. The composition of TYI-S-33 medium and method of preparation is described in detail by Diamond (J Parasitology 54:1047-1056, 1968). Test compounds are tested at different concentrations, the highest is 100 µg/ml. Lower concentrations are tested in successive tests until the minimum inhibitory concentration is reached. The reference compounds tinidazole was active in killing the amoeba at a minimum concentration of 1.5 µg/ml. Compound B of this invention was active in killing the amoeba at a minimum concentration of 3.1 µg/ml.

Entamoeba histolytica = test: Anti-amoebic action in vivo in rats infected in the caecum (cure index); settings: for cure index: five days

Row | SMILES | MIC [1] | cure index (Entamoeba histolytica; Dose 9 mg/kg oral) | cure index (Entamoeba histolytica; Dose 18.8 mg/kg oral) | cure index (Entamoeba histolytica; Dose 37.5 mg/kg oral) | cure index (Entamoeba histolytica; Dose 75 mg/kg oral) | cure index (Entamoeba histolytica; Dose 100 mg/kg oral) | increase in cure index (in words) (Entamoeba histolytica; doses of 9 or 20 mg/kg per day, oral) | cure index (Entamoeba histolytica; Dose 150 mg/kg oral) | cure index (Entamoeba histolytica; Dose 200 mg/kg oral)
1 | COc1ccc(CSc2ccccc2N(C)CCCN(C)CCc2ccc(OC)c(OC)c2)cc1 [Compound B, N-[2-(3,4-dimethoxyphenyl)ethyl]-N-methyl-N'-[2-(4-methoxyphenyl)methylthiophenyl]-N'-methyl-1,3-diaminopropane] | 3.1 µg/mL (≈ 6.27 µM) |  |  |  |  |  |  |  | 
2 | COc1ccc(CCNCCC(=O)N(C)c2ccccc2SC)cc1OC [Compound A, 3-[2-(3,4-dimethoxyphenyl)ethylamino]-N-methyl-N-[(2-methylthio)phenyl]-propionamide] |  | 23 percentage of the control group | 34 percentage of the control group | 56 ±5 percentage of the control group | 76 ±6 percentage of the control group | 74 ± 10 percentage of the control group | No increase in cure index |  | 
3 | CCS(=O)(=O)CCn1c([N+](=O)[O-])cnc1C [Tinidazole, reference compound] | 1.5 µg/mL (≈ 6.07 µM) |  |  |  | 51 ± 8 percentage of the control group |  |  | 66 ± 5 percentage of the control group | 81 ± 5 percentage of the control group
